Experiments:
[1] = Cytotoxic activity (MTT) against normal gingival fibroblast HGF; type: cell-based; settings: human, HGF normal gingival fibroblasts, HGF normal oral cells, 48 h incubation
Experimental: (§1) Human normal oral mesenchymal cells, gingival fibroblast (HGF), and periodontal ligament fibroblast (HPLF) established from the first premolar tooth extracted from the lower jaw of a child[47] and human OSCC cell line HSC-2 (derived from tongue), purchased from Riken Cell Bank (Tsukuba, Japan), were cultured at 37 °C in DMEM supplemented with 10% heat-inactivated FBS, 100 units/ml penicillin G, and 100 µg/ml streptomycin sulphate under a humidified 5% CO2 atmosphere. HGF and HPLF cells at 10–18 population doubling levels were used in this study.
(§2) Cells were inoculated at 2.5 × 10^3 cells/0.1 ml in a 96-microwell plate (Becton Dickinson Labware, Franklin Lakes, NJ). After 48 h, the medium was replaced with 0.1 ml of fresh medium containing different concentrations of single test compounds. Cells were incubated further for 48 h and the relative viable cell number was then determined by the MTT method[22]^,[48–54]. All benzoxazolone derivatives were dissolved with DMSO at the concentration of 40 mM and stored until use. Control cells were treated with the same amounts of DMSO ([…], 0.03125, 0.0625, 0.125, 0.25, 0.5, and 1.0%) and the cell damage induced by DMSO was subtracted from that induced by test agents. In brief, cells were stained with MTT reagent, dissolved with DMSO, and the absorbance of the MTT-stained cell lysate was measured at 560 nm, using a microplate reader (Infinite F 50R, TECAN, Kawasaki, Japan). […]

[2] = Cytotoxic activity (MTT) against normal periodontal ligament fibroblast HPLF; type: cell-based; settings: human, HPLF normal periodontal ligament fibroblasts, HPLF normal oral cells, 48 h incubation
Experimental: as §1, §2

[3] = tested on: HSC-2; assay: Cytotoxic activity (MTT) against OSCC cell line HSC-2; type: cell-based, human; settings: for CC50: Homo sapiens, HSC-2, 48 h incubation, MTT, triplicate; for PSE (B/A2)×100: potency-selectivity expression = mean CC50 normal cells / (CC50 HSC-2)^2 × 100; for increase in cytotoxicity compared to non-substituted compound 1: HSC-2 CC50 ratio versus compound 1; for increase in TS (selectivity) compared to compound 1: TS ratio versus compound 1; for TS (B/A): tumour specificity = mean CC50 normal cells (HGF, HPLF) / CC50 HSC-2
Experimental: as §1, §2
(§3) Tumour specificity (TS) was calculated using the following equation: TS = Mean CC50 against three normal oral cell types (HGF, HPLF)/Mean CC50 against four OSCC cell lines (HSC-2). Since HGF cells were derived from gingival tissue, the relative sensitivity of these cells was also compared (as mean CC50 against HGF/mean CC50 against HSC-2).

[4] = Cytotoxic activity (MTT), mean over human normal oral cells; type: cell-based; settings: HGF and HPLF normal oral fibroblasts (mean of both), read-out: CC50 Human normal oral cells Mean (B)
Experimental: as §1, §2, §3

[5] = molecular target: hCA I (Homo sapiens, UniProt P00915); assay: Carbonic anhydrase inhibition, hCA I; type: biochemical; settings: for Ki: Lineweaver–Burk, three concentrations
Sequence of hCA I (P00915 whole entry): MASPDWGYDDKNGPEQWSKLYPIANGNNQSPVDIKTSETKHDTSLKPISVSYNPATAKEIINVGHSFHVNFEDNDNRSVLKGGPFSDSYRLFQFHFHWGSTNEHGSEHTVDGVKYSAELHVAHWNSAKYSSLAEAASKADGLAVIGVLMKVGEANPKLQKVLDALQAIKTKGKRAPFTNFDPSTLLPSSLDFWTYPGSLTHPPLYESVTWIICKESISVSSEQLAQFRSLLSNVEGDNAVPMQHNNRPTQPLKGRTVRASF
Experimental: (§4) The purification of cytosolic CA isoenzymes (CA I and CA II) was previously described with a simple one-step method by a Sepharose-4B-L tyrosine-sulphanilamide affinity chromatography[42]^,[53]^,[55–58]. The protein quantity in the column effluents was determined spectrophotometrically at 280 nm. Sodium dodecyl sulphate-polyacrylamide gel electrophoresis (SDS-PAGE) was applied with a Bio-Rad Mini Gel system Mini-PROTEIN system (Bio-Rad Laboratories, Inc., Shanghai, China) after purification of both CA isoenzymes. Briefly, it was performed in acrylamide for the running (10%) and the stacking gel (3%) contained SDS (0.1%), respectively. […] Bovine serum albumin was used as a standard protein. The IC50 values were obtained from activity (%) versus compounds plots. For the calculation of Ki values, three different concentrations were used. The Lineweaver–Burk curves were drawn and calculations were realised as before.

[6] = molecular target: hCA II (Homo sapiens, UniProt P00918); assay: Carbonic anhydrase inhibition, hCA II; type: biochemical; settings: for Ki: Lineweaver–Burk, three concentrations
Experimental: as §4

Row | Compound | IC50 [5] | Ki [5] | IC50 [6] | Ki [6] | melting point | CC50 at 48 h [1] | CC50 at 48 h [2] | CC50 [3] | PSE (B/A2)×100 [3] | CC50 at 48 h [4] | times more cytotoxic than 5-FU ([3]; HSC-2 CC50 ratio versus 5-FU) | times low cytotoxic than DXR ([3]; HSC-2 CC50 ratio versus DXR) | increase in cytotoxicity compared to non-substituted compound 1 [3] | PSE value higher than 5-FU ([3]; PSE ratio versus 5-FU) | PSE value compared to compound 1 ([3]; PSE ratio versus compound 1) | increase in TS (selectivity) compared to compound 1 [3] | TS (B/A) [3] | cytotoxicity reduced compared to compound 1 ([3]; HSC-2 CC50 ratio versus compound 1, decrease)
1 | COc1cccc2c1C(=O)c1c(O)c3c(c(O)c1C2=O)C[C@@](O)(C(=O)CO)C[C@@H]3O[C@H]1C[C@H](N)[C@H](O)[C@H](C)O1 [DXR, Doxorubicin, reference compound] | – | – | – | – | – | 0.7 µM | > 10 µM | 0.5 µM | >2030 | > 5.3 µM | – | – | – | – | – | – | – | –
2 | O=C(C=Cc1ccc(C(F)(F)F)cc1)c1ccc2[nH]c(=O)oc2c1 [Compound 4, 6-[3-(4-Trifluoromethylphenyl)-2-propenoyl]-3H-benzoxazol-2-one] | 29.7 µM | 30.8 ± 3.49 µM | 45 µM | 19.2 ± 2.19 µM | – | 24.7 µM | 26.3 µM | 4 µM | 159 | 25.5 µM | 9.4 times | 8 times | 5.5 times | about 2 times | 9.9 times | 1.8 times | 6.4 | –
3 | O=c1[nH]cc(F)c(=O)[nH]1 [Compound 5-FU, 5-Fluorouracil, reference compound] | – | – | – | – | – | > 1000 µM | > 1000 µM | 37.7 µM | 80.7 | > 1000 µM | – | – | – | – | – | – | – | –
4 | O=C(C=Cc1cccc(O)c1)c1ccc2[nH]c(=O)oc2c1 [Compound 5, 6-[3-(3-Hydroxyphenyl)-2-propenoyl]-3H-benzoxazol-2-one] | 69.6 µM | 63 ± 15.4 µM | 48.5 µM | 35.2 ± 8.36 µM | 277 to 279 °C | 55.4 µM | 50.3 µM | 6.9 µM | 111 | 52.9 µM | – | – | – | – | – | – | 7.7 | –
5 | O=C(C=Cc1ccc(OCc2ccccc2)cc1)c1ccc2[nH]c(=O)oc2c1 [Compound 8, 6-[3-(4-Benzyloxyphenyl)-2-propenoyl]-3H-benzoxazol-2-one] | 57.7 µM | 28.4 ± 6.63 µM | 18.1 µM | 38 ± 2.36 µM | 243 to 245 °C | 98 µM | 32.7 µM | 11.9 µM | 46 | 65.3 µM | – | – | 1.9 times | – | – | – | 5.5 | –
6 | O=C(C=Cc1ccccc1)c1ccc2[nH]c(=O)oc2c1 [Compound 1, 6-(3-Phenyl-2-propenoyl)-3H-benzoxazol-2-one] | 58.7 µM | 70.6 ± 6.67 µM | 40.5 µM | 36.2 ± 13.3 µM | 230 to 232 °C | 71 µM | 83.3 µM | 22.1 µM | 16 | 77.2 µM | – | – | – | – | – | – | 3.5 | –

Continued, in another order:

Row | IC50 [5] | Ki [5] | IC50 [6] | Ki [6] | melting point | Compound | CC50 at 48 h [1] | CC50 at 48 h [2] | CC50 [3] | PSE (B/A2)×100 [3] | CC50 at 48 h [4] | times more cytotoxic than 5-FU ([3]; HSC-2 CC50 ratio versus 5-FU) | times low cytotoxic than DXR ([3]; HSC-2 CC50 ratio versus DXR) | increase in cytotoxicity compared to non-substituted compound 1 [3] | PSE value higher than 5-FU ([3]; PSE ratio versus 5-FU) | PSE value compared to compound 1 ([3]; PSE ratio versus compound 1) | increase in TS (selectivity) compared to compound 1 [3] | TS (B/A) [3] | cytotoxicity reduced compared to compound 1 ([3]; HSC-2 CC50 ratio versus compound 1, decrease)
7 | 40.3 µM | 52.3 ± 9.97 µM | 29.7 µM | 10.8 ± 2.14 µM | 248 to 250 °C | CN(C)c1ccc(C=CC(=O)c2ccc3[nH]c(=O)oc3c2)cc1 [Compound 7, 6-[3-(4-Dimethylaminophenyl)-2-propenoyl]-3H-benzoxazol-2-one] | 76.3 µM | 70 µM | 30.2 µM | 8 | 73.2 µM | – | – | – | – | – | – | 2.4 | 1.4 times
8 | 52.1 µM | 37.1 ± 7.77 µM | 30.1 µM | 33.3 ± 6.15 µM | 220 to 222 °C | CC(C)c1ccc(C=CC(=O)c2ccc3[nH]c(=O)oc3c2)cc1 [Compound 6, 6-[3-(4-Isopropylphenyl)-2-propenoyl]-3H-benzoxazol-2-one] | 53 µM | 76 µM | 10.1 µM | 64 | 64.5 µM | – | – | 2.2 times | – | – | 1.8 times | 6.4 | –
9 | 33 µM | 38.8 ± 1.93 µM | 45.6 µM | 32.1 ± 6.6 µM | 258 to 260 °C | Cc1ccc(C=CC(=O)c2ccc3[nH]c(=O)oc3c2)cc1 [Compound 2, 6-[3-(4-Metyhlphenyl)-2-propenoyl]-3H-benzoxazol-2-one] | 87.7 µM | 105 µM | 10.1 µM | 94 | 96.5 µM | – | – | 2.2 times | – | – | 2.7 times | 9.5 | –
10 | 47.5 µM | 30.5 ± 11.3 µM | 48.1 µM | 36.2 ± 10.3 µM | 210 to 213 °C | COc1ccc(C=CC(=O)c2ccc3[nH]c(=O)oc3c2)cc1 [Compound 3, 6-[3-(4-Methoxyphenyl)-2-propenoyl]-3H-benzoxazol-2-one] | 88.3 µM | 84 µM | 14.5 µM | 41 | 86.2 µM | – | – | 1.5 times | – | – | – | 5.9 | –

— publication PMC6781194, “Synthesis, cytotoxicities, and carbonic anhydrase inhibition potential of 6-(3-aryl-2-propenoyl)-2(3H)-benzoxazolones” (Journal of Enzyme Inhibition and Medicinal Chemistry, 2019)
